Source: ChEMBL document CHEMBL5226373, “Dichapetalins from the Twigs of Dichapetalum longipetalum with Cytotoxic Activities” (J Nat Prod, 2023)
Structures can show the parent of a compound that is named as a salt.

Assays:
Type in all cases: functional, cell-based
HL-60 = assay: Cytotoxicity against human HL-60 cells assessed as inhibition of cell growth by CCK-8 assay
A549 = assay: Cytotoxicity against human A549 cells assessed as inhibition of cell growth by CCK-8 assay
MIA PaCa-2 = assay: Cytotoxicity against human MIA PaCa-2 cells assessed as inhibition of cell growth by CCK-8 assay
SU.86.86 = assay: Cytotoxicity against human SU-86-86 cells assessed as inhibition of cell growth by CCK-8 assay
YAPC = assay: Cytotoxicity against human YAPC cells assessed as inhibition of cell growth by CCK-8 assay

Compound	IC50 (HL-60) [µM]	IC50 (A549) [µM]	IC50 (MIA PaCa-2) [µM]	IC50 (SU.86.86) [µM]	IC50 (YAPC) [µM]
C/C(=C\[C@@H]1OC(=O)[C@](O)([C@@H]2CC[C@]34C[C@]23C=C[C@@H]2[C@@]3(C)CC=C(/C=C/c5ccccc5)C(C)(C)[C@@H]3C[C@@H](O)[C@]24C)[C@H]1O)CO	1	3.8	0.96	–	–
C/C(=C\[C@@H]1C[C@@](O)([C@@H]2CC[C@]34C[C@]23C=C[C@@H]2[C@@]3(C)CC=C(/C=C/c5ccccc5)C(C)(C)[C@@H]3CC(=O)[C@]24C)C(=O)O1)CO	1.7	2.2	0.77	–	–
COc1ccc([C@@H]2C=C3[C@H](C[C@]4(C)[C@H]5C=C[C@]67C[C@]6(CC[C@H]7[C@H]6CO[C@@H](/C=C(\C)CO)[C@@H]6O)[C@]5(C)[C@H](O)C[C@H]4C3(C)C)OO2)cc1	> 10	> 10	–	–	–
C/C(=C\[C@H]1C[C@@](O)([C@@H]2CC[C@]34C[C@]23CC[C@@H]2[C@@]3(C)Cc5oc(-c6ccccc6)cc5C(C)(C)[C@@H]3C[C@H](O)[C@]24C)C(=O)O1)CO	> 10	> 10	–	–	–
C/C(=C\[C@H]1C[C@@H]([C@@H]2CC[C@]34C[C@]23C=C[C@@H]2[C@@]3(C)CC=C(/C=C/c5ccccc5)C(C)(C)[C@@H]3C[C@@H](O)[C@]24C)C(=O)O1)CO	0.35	2.8	0.67	1.6	6.7
C/C(=C\[C@H]1C[C@@](O)([C@@H]2CC[C@]34C[C@]23C=C[C@@H]2[C@@]3(C)CC=C(/C=C\c5ccccc5)C(C)(C)[C@@H]3CC(=O)[C@]24C)C(=O)O1)CO	1.3	3.7	2.8	–	–
C/C(=C\[C@@H]1OC(=O)[C@H]([C@@H]2CC[C@]34C[C@]23C=C[C@@H]2[C@@]3(C)CC(=O)/C(=C\C(=O)c5ccccc5)C(C)(C)[C@@H]3C[C@H](O)[C@]24C)[C@H]1O)CO	> 10	> 10	–	–	–
C/C(=C\[C@@H]1OC(=O)[C@H]([C@@H]2CC[C@]34C[C@]23C=C[C@@H]2[C@@]3(C)CC=C(/C=C/c5ccccc5)C(C)(C)[C@@H]3C[C@H](O)[C@]24C)[C@H]1O)CO	0.28	1.8	0.93	–	–
COc1ccc([C@H]2C=C3[C@@H](C[C@]4(C)[C@H]5C=C[C@]67C[C@]6(CC[C@H]7[C@H]6CO[C@@H](/C=C(\C)CO)[C@@H]6O)[C@]5(C)[C@H](O)C[C@H]4C3(C)C)OO2)cc1	> 10	> 10	–	–	–
C/C(=C\[C@H]1C[C@@](O)([C@@H]2CC[C@]34C[C@]23C=C[C@@H]2[C@@]3(C)CC(=O)/C(=C\C(=O)c5ccccc5)C(C)(C)[C@@H]3C[C@@H](O)[C@]24C)C(=O)O1)CO	> 10	9.4	–	–	–
COc1ccc(C(=O)[C@@H]2O[C@]23C(=O)C[C@]2(C)[C@H]4C=C[C@]56C[C@]5(CC[C@H]6[C@H]5C(=O)O[C@@H](/C=C(\C)CO)[C@@H]5O)[C@]4(C)[C@H](O)C[C@H]2C3(C)C)cc1	> 10	> 10	–	–	–
CC(=O)O[C@@]1(C)CO[C@@]2(C1)OC(=O)[C@H]([C@@H]1CC[C@]34C[C@]13C=C[C@@H]1[C@@]3(C)CC=C5C[C@@H](c6ccccc6)OC[C@]5(C)[C@@H]3C[C@H](O)[C@]14C)[C@H]2O	> 10	3.3	–	–	–
C/C(=C\[C@@H]1OC(=O)[C@H]([C@@H]2CC[C@]34C[C@]23C=C[C@@H]2[C@@]3(C)CC=C(/C=C\c5ccccc5)C(C)(C)[C@@H]3C[C@@H](O)[C@]24C)[C@H]1O)CO	3.3	9.2	> 10	–	–
C/C(=C\[C@H]1C[C@@](O)([C@@H]2CC[C@]34C[C@]23C=C[C@@H]2[C@@]3(C)CC=C5C[C@@H](c6ccccc6)OC[C@]5(C)[C@@H]3C[C@@H](O)[C@]24C)C(=O)O1)CO	> 10	1.1	–	–	–
COc1ccc(/C=C/C2=CC[C@]3(C)[C@H]4C=C[C@]56C[C@]5(CC[C@H]6[C@H]5C(=O)O[C@@H](/C=C(\C)CO)[C@@H]5O)[C@]4(C)[C@H](O)C[C@H]3C2(C)C)cc1	0.36	1.2	0.39	1.7	> 10
COc1cccc2c1C(=O)c1c(O)c3c(c(O)c1C2=O)C[C@@](O)(C(=O)CO)C[C@@H]3O[C@H]1C[C@H](N)[C@H](O)[C@H](C)O1 [DOXORUBICIN HYDROCHLORIDE]	–	–	0.25	0.33	0.31
